This is an account of results in publication PMC6934184, “Selective DNA-PKcs inhibition extends the therapeutic index of localized radiotherapy and chemotherapy” (The Journal of Clinical Investigation, 2019).

The experiment addresses T1, CSNK1D (CK1 delta) (Homo sapiens, UniProt P48730).
T1 construct: purchased Thermo Fisher Scientific (Life Technologies) SelectScreen
Nature of the experiment: SelectScreen Z'LYTE. It counts as biochemical. As to the method: The in vitro kinase selectivity of NU5455 was determined using the SelectScreen Broad Assay Panel (Thermo Fisher Scientific) involving activity and binding assays (Supplemental Table 1). […] Class IA PI3Ks were measured using the p85α subunit.
Kinase [ATP] % Assay Kinase [ATP] % Assay Kinase [ATP] % Assay Kinase [ATP] % Assay
DNA-PK Km app 98.3 Z LATS2 n/a 4.7 L KIT D820E n/a 1.3 L GSK3B (GSK3 beta) Km app -2.5 Z
PIK3C3 (hVPS34) Km app 85.9 A PRKCZ (PKC zeta) Km app 4.7 Z GRK1 n/a 1.3 L BMPR2 n/a -2.5 L
PIK3C2B (PI3K-C2 beta) 10 28.9 A FGFR1 Km app 4.7 Z BRSK2 n/a 1.2 L CDC42 BPB (MRCKB) Km app -2.5 Z
SNF1LK2 Km app 26.6 Z MINK1 Km app 4.6 Z NUAK1 (ARK5) Km app 1.2 A AMPK (A2/B2/G2) n/a -2.6 L
HCK Km app 18.0 Z CSF1R (FMS) Km app 4.3 Z CDK9/cyclin K n/a 1.0 L PRKG1 Km app -2.7 Z
NEK2 Km app 17.8 Z CSNK1G3 (CK1 gamma 3) Km app 4.2 Z NUAK2 n/a 1.0 L KIT T670E n/a -2.8 L
ALK Km app 17.3 Z STK32C (YANK3) n/a 4.2 L CDK2/cyclin O n/a 0.9 L ERBB4 (HER4) Km app -2.8 Z
FGFR3 K650M n/a 16.5 L STK22D (TSSK1) Km app 4.2 Z CAMKK2 (CaMKK beta) n/a 0.9 L PLK4 n/a -2.8 L
SIK3 n/a 16.1 L TAOK3 (JIK) n/a 4.2 L FGFR3 Km app 0.9 Z GRK7 Km app -3.0 Z
LYN A Km app 15.2 Z RPS6KA4 (MSK2) Km app 4.2 Z ULK2 n/a 0.9 L MAPKAPK2 Km app -3.1 Z
BMPR1B (ALK6) n/a 14.5 L PTK2B (FAK2) Km app 4.2 Z KIT D816V n/a 0.9 L FGFR4 Km app -3.1 Z
INSRR (IRR) Km app 14.1 Z CLK2 Km app 4.1 Z CAMK1 (CaMK1) 10 0.8 A CASK n/a -3.1 L
PLK2 Km app 14.1 Z STK24 (MST3) Km app 4.1 Z PTK6 (Brk) Km app 0.7 Z GRK5 Km app -3.2 Z
PRKACA (PKA) Km app 14.0 Z CAMK1D (CaMKI delta) Km app 4.1 Z CAMK2B (CaMKII beta) Km app 0.7 Z EGFR (ErbB1) T790M Km app -3.3 Z
EIF2AK2 (PKR) n/a 13.3 L INSR Km app 4.1 Z ACVR1 (ALK2) n/a 0.7 L PAK4 Km app -3.3 Z
PRKX Km app 12.5 Z IRAK1 Km app 4.0 A ABL1 H396P n/a 0.6 L DAPK3 (ZIPK) Km app -3.4 Z
FGR Km app 12.1 Z SRC N1 Km app 3.9 Z MERTK (cMER) A708S n/a 0.6 L RET M918T n/a -3.5 L
CLK1 Km app 11.7 Z SRPK2 Km app 3.9 Z MAPKAPK5 (PRAK) Km app 0.6 Z PRKCQ (PKC theta) Km app -3.7 Z
MARK3 Km app 11.4 Z RPS6KA6 (RSK4) Km app 3.8 Z AKT1 (PKB alpha) Km app 0.5 Z CAMKK1 (CAMKKA) n/a -3.8 L
PDGFRB (PDGFR beta) Km app 11.0 Z GRK6 Km app 3.7 Z NTRK3 (TRKC) Km app 0.4 Z FLT3 D835Y Km app -3.9 Z
PRKCN (PKD3) Km app 10.7 Z PKN1 (PRK1) Km app 3.6 Z ZAP70 Km app 0.3 Z ROCK2 Km app -4.1 Z
STK16 (PKL12) n/a 10.5 L MAP3K8 (COT) 100 3.5 Z CSNK1A1 (CK1 alpha 1) Km app 0.3 Z CHUK (IKK alpha) Km app -4.2 A
FES (FPS) Km app 10.4 Z FLT4 (VEGFR3) Km app 3.5 Z MYLK (MLCK) n/a 0.2 L AXL Km app -4.2 Z
ABL1 Km app 10.4 Z GRK4 Km app 3.5 Z MKNK2 (MNK2) n/a 0.2 L PIM2 Km app -4.3 Z
MUSK Km app 10.3 Z FRK (PTK5) Km app 3.4 Z AMPK (A1/B1/G3) n/a 0.2 L PAK1 Km app -4.4 Z
MAPK1 (ERK2) Km app 10.1 Z FYN A n/a 3.3 L MAP3K2 (MEKK2) n/a 0.1 L BMPR1A (ALK3) n/a -4.4 L
BRAF 100 9.9 Z CDK1/cyclin A2 n/a 3.3 L CDK8/cyclin C n/a 0.1 L STK4 (MST1) Km app -4.4 Z
IGF1R Km app 9.7 Z KIT V559D T670I n/a 3.1 L MARK2 Km app 0.1 Z PRKCH (PKC eta) Km app -4.6 Z
MAPK14 (p38 alpha) Km app 9.7 Z SPHK2 10 3.1 A ICK n/a 0.0 L SGKL (SGK3) Km app -4.6 Z
LCK Km app 9.6 Z FGFR3 G697C n/a 3.1 L FGFR2 Km app 0.0 Z PI4KB (PI4K beta) Km app -4.7 A
MAPK11 (p38 beta) Km app 9.5 Z RIPK2 n/a 3.1 L AKT2 (PKB beta) Km app 0.0 Z PRKCE (PKC epsilon) Km app -4.9 Z
SRC Km app 9.5 Z PAK6 Km app 3.0 Z EPHB2 Km app -0.1 Z PHKG1 Km app -5.0 Z
CHEK1 (CHK1) Km app 9.3 Z LYN B Km app 3.0 Z TGFBR2 n/a -0.1 L PDGFRA D842V Km app -5.0 Z
CAMK2D (CaMKII delta) Km app 9.3 Z DAPK2 n/a 2.9 L TEK (Tie2) Km app -0.1 Z PRKG2 (PKG2) Km app -5.1 Z
PLK1 Km app 9.2 Z EPHA4 Km app 2.9 Z AURKA (Aurora A) Km app -0.1 Z TYRO3 (RSE) Km app -5.1 Z
RET Y791F Km app 9.2 Z PIK3CG (p110 gamma) Km app 2.9 A KIT D816H n/a -0.2 L TAOK2 (TAO1) Km app -5.1 Z
FLT3 Km app 9.1 Z HIPK1 (Myak) Km app 2.8 Z KIT N822K n/a -0.2 L EPHB4 Km app -5.3 Z
MAPK10 (JNK3) 100 9.0 Z ADRBK2 (GRK3) Km app 2.8 Z PRKACG (PRKAC gamma) n/a -0.2 L AURKC (Aurora C) Km app -5.4 Z
CSNK2A2 (CK2 alpha 2) Km app 8.7 Z STK17B (DRAK2) n/a 2.7 L TEK (TIE2) Y1108F n/a -0.3 L JAK1 Km app -5.7 Z […]

T1 sequence (P48730 whole entry): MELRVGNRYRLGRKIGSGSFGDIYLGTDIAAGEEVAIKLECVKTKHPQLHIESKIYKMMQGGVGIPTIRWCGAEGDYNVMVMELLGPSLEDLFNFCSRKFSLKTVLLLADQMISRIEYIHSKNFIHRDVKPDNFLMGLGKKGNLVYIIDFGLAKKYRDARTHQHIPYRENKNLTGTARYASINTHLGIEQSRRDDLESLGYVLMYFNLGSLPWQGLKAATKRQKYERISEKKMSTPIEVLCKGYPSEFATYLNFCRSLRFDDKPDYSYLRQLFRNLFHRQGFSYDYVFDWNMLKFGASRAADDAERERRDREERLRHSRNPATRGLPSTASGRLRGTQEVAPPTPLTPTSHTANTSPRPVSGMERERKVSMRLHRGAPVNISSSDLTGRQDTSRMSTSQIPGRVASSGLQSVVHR

For orientation: inhibition means the change of the read-out against control, counted positive when it falls. Turning to `CN(C(=O)CN1CCOCC1)c1ccc2sc3c(-c4cccc5c(=O)cc(N6CC7CCC(C6)O7)oc45)cccc3c2c1` [NU5455], the inhibition at 1 µM is 2.6%.
